From PubChem BioAssay AID2060623 (Molecular Pharmacology Branch, DTP, NCI, 2025)

Test system: 227483-062-R1-J1-PDC complex spheroids with HUVEC/MSC, viability
Assay: Anticancer human tumor 227483-062-R1-J1-PDC patient-derived pancreatic carcinoma cell line growth inhibition [CLK]
Conditions: for IC50: curve of first compound; for viability, T/C: stronger effect = lower value
Summary of the method: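 Patient-derived tumor cells grown as complex spheroids with HUVEC endothelial cells and mesenchymal stem cells, treated with drug combinations. Concentrations descend in half-log steps from near clinical Cmax, or from 10 microM if Cmax unknown.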
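Note: spheroids exposed to compounds for seven days before readout.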
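Throughout, for viability, T/C: percent of DMSO vehicle control luminescence as 100% viability.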

CC(C)CC(NC(=O)C(Cc1ccccc1)NC(=O)c1cnccn1)B(O)O (centres undefined) + CNC(=O)c1ccc(Nc2nc(OC3CCCC3)c3c(-c4ccc5nc(C)oc5c4)c[nH]c3n2)c(OC)c1
IC50 (second compound 0.0316 µM): 1.53 nM | IC50 (second compound 0.1 µM): 1.64 nM | IC50 (second compound 0.316 µM): 1.39 nM | IC50 (second compound 1 µM): < 0.949 nM | IC50 (second compound 3.16 µM): < 0.949 nM | IC50 (second compound 10 µM): < 0.949 nM | viability, T/C (second compound 0.0316 µM, first compound 0.000949 µM): 84% | viability, T/C (second compound 0.0316 µM, first compound 0.003 µM): 1.62% | viability, T/C (second compound 0.0316 µM, first compound 0.00949 µM): 0.49% | viability, T/C (second compound 0.0316 µM, first compound 0.03 µM): 1.29% | viability, T/C (second compound 0.0316 µM, first compound 0.0949 µM): 0.77% | viability, T/C (second compound 0.0316 µM, first compound 0.3 µM): 1.96% | viability, T/C (second compound 0.1 µM, first compound 0.000949 µM): 94.3% | viability, T/C (second compound 0.1 µM, first compound 0.003 µM): 1.2% | viability, T/C (second compound 0.1 µM, first compound 0.00949 µM): 1.56% | viability, T/C (second compound 0.1 µM, first compound 0.03 µM): 0.47% | viability, T/C (second compound 0.1 µM, first compound 0.0949 µM): 0.71% | viability, T/C (second compound 0.1 µM, first compound 0.3 µM): 0.48% | viability, T/C (second compound 0.316 µM, first compound 0.000949 µM): 74.2% | viability, T/C (second compound 0.316 µM, first compound 0.003 µM): 0.82% | viability, T/C (second compound 0.316 µM, first compound 0.00949 µM): 0.43% | viability, T/C (second compound 0.316 µM, first compound 0.03 µM): 0.97% | viability, T/C (second compound 0.316 µM, first compound 0.0949 µM): 0.43% | viability, T/C (second compound 0.316 µM, first compound 0.3 µM): 0.68% | viability, T/C (second compound 1 µM, first compound 0.000949 µM): 42.7% | viability, T/C (second compound 1 µM, first compound 0.003 µM): 0.52% | viability, T/C (second compound 1 µM, first compound 0.00949 µM): 0.29% | viability, T/C (second compound 1 µM, first compound 0.03 µM): 0.28% | viability, T/C (second compound 1 µM, first compound 0.0949 µM): 1.45% | viability, T/C (second compound 1 µM, first compound 0.3 µM): 0.23% | viability, T/C (second compound 3.16 µM, first compound 0.000949 µM): 26.4% | viability, T/C (second compound 3.16 µM, first compound 0.003 µM): 0.37% | viability, T/C (second compound 3.16 µM, first compound 0.00949 µM): 0.79% | viability, T/C (second compound 3.16 µM, first compound 0.03 µM): 0.21% | viability, T/C (second compound 3.16 µM, first compound 0.0949 µM): 1.01% | viability, T/C (second compound 3.16 µM, first compound 0.3 µM): 0.26% | viability, T/C (second compound 10 µM, first compound 0.000949 µM): 17% | viability, T/C (second compound 10 µM, first compound 0.003 µM): 0.42% | viability, T/C (second compound 10 µM, first compound 0.00949 µM): 0.24% | viability, T/C (second compound 10 µM, first compound 0.03 µM): 0.26% | viability, T/C (second compound 10 µM, first compound 0.0949 µM): 1.09% | viability, T/C (second compound 10 µM, first compound 0.3 µM): 0.3%

CC1(C)CCC(CN2CCN(c3ccc(C(=O)NS(=O)(=O)c4ccc(NCC5CCOCC5)c([N+](=O)[O-])c4)c(Oc4cnc5[nH]ccc5c4)c3)CC2)=C(c2ccc(Cl)cc2)C1 + CNC(=O)c1ccc(Nc2nc(OC3CCCC3)c3c(-c4ccc5nc(C)oc5c4)c[nH]c3n2)c(OC)c1
IC50 (second compound 0.0316 µM): 5960 nM | IC50 (second compound 0.1 µM): 5530 nM | IC50 (second compound 0.316 µM): 5270 nM | IC50 (second compound 1 µM): 4510 nM | IC50 (second compound 3.16 µM): 3450 nM | IC50 (second compound 10 µM): < 31.6 nM | viability, T/C (second compound 0.0316 µM, first compound 0.0316 µM): 96.7% | viability, T/C (second compound 0.0316 µM, first compound 0.1 µM): 101% | viability, T/C (second compound 0.0316 µM, first compound 0.316 µM): 100% | viability, T/C (second compound 0.0316 µM, first compound 1 µM): 121% | viability, T/C (second compound 0.0316 µM, first compound 3.16 µM): 101% | viability, T/C (second compound 0.0316 µM, first compound 10 µM): 8.36% | viability, T/C (second compound 0.1 µM, first compound 0.0316 µM): 90.2% | viability, T/C (second compound 0.1 µM, first compound 0.1 µM): 93.6% | viability, T/C (second compound 0.1 µM, first compound 0.316 µM): 87.7% | viability, T/C (second compound 0.1 µM, first compound 1 µM): 85.9% | viability, T/C (second compound 0.1 µM, first compound 3.16 µM): 87.8% | viability, T/C (second compound 0.1 µM, first compound 10 µM): 9.86% | viability, T/C (second compound 0.316 µM, first compound 0.0316 µM): 100% | viability, T/C (second compound 0.316 µM, first compound 0.1 µM): 91.2% | viability, T/C (second compound 0.316 µM, first compound 0.316 µM): 78.7% | viability, T/C (second compound 0.316 µM, first compound 1 µM): 88.5% | viability, T/C (second compound 0.316 µM, first compound 3.16 µM): 84.6% | viability, T/C (second compound 0.316 µM, first compound 10 µM): 6.46% | viability, T/C (second compound 1 µM, first compound 0.0316 µM): 70.6% | viability, T/C (second compound 1 µM, first compound 0.1 µM): 67.2% | viability, T/C (second compound 1 µM, first compound 0.316 µM): 73.1% | viability, T/C (second compound 1 µM, first compound 1 µM): 85.3% | viability, T/C (second compound 1 µM, first compound 3.16 µM): 67.2% | viability, T/C (second compound 1 µM, first compound 10 µM): 9.18% | viability, T/C (second compound 3.16 µM, first compound 0.0316 µM): 50.3% | viability, T/C (second compound 3.16 µM, first compound 0.1 µM): 63.3% | viability, T/C (second compound 3.16 µM, first compound 0.316 µM): 55.3% | viability, T/C (second compound 3.16 µM, first compound 1 µM): 57.6% | viability, T/C (second compound 3.16 µM, first compound 3.16 µM): 53.3% | viability, T/C (second compound 3.16 µM, first compound 10 µM): 7.8% | viability, T/C (second compound 10 µM, first compound 0.0316 µM): 48% | viability, T/C (second compound 10 µM, first compound 0.1 µM): 45% | viability, T/C (second compound 10 µM, first compound 0.316 µM): 51.7% | viability, T/C (second compound 10 µM, first compound 1 µM): 46.3% | viability, T/C (second compound 10 µM, first compound 3.16 µM): 44.1% | viability, T/C (second compound 10 µM, first compound 10 µM): 9.45%
